# Test results reported in patent US20250230193A1, “CYCLIC COMPOUND HAVING SELECTIVE KRAS INHIBITORY EFFECT ON HRAS AND NRAS” (CHUGAI SEIYAKU KABUSHIKI KAISHA, priority 2022, published 2025).
# *1 amine or outer side, *2 acyl side, *3 side chain or, on linkers, in order; H or OH if unused. Where a SMILES comes first, the peptide text is derived from it. Bridges are numbered along the chain shown (N, C = ends). [ ]: non-standard residue; d: D form. hPhe(3-Cl-4-CF3) = N[C@@H](CCc1ccc(C(F)(F)F)c(Cl)c1)C(=O)O; NPrPhe(4-CF3) = CCCN[C@@H](Cc1ccc(C(F)(F)F)cc1)C(=O)O; NEtAsp = CCN([C@@H](CC(=O)[*:3])C(=O)[*:2])[*:1]; NMeGly(cPent) = CN[C@H](C(=O)O)C1CCCC1; NMeL = CN[C@@H](CC(C)C)C(=O)O; Ac4c = NC1(C(=O)O)CCC1; Sar = CNCC(=O)O
# Key:
# [1] = target: GDP-bound NRAS wild-type protein (Homo sapiens, UniProt P01111); assay: Binding to NRAS by surface plasmon resonance (SPR), Single Cycle Kinetics; settings: SPR
# Sequence of GDP-bound NRAS wild-type protein (P01111 whole entry): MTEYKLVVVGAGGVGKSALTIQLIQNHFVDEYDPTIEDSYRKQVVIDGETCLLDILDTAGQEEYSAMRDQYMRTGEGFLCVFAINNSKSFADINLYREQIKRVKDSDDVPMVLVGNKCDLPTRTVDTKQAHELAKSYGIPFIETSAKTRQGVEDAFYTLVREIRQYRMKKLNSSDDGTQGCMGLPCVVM
# [2] = target: GDP-bound HRAS wild-type protein (Homo sapiens, UniProt P01112); assay: Binding to HRAS by surface plasmon resonance (SPR), Single Cycle Kinetics; settings: SPR
# Sequence of GDP-bound HRAS wild-type protein (P01112 whole entry): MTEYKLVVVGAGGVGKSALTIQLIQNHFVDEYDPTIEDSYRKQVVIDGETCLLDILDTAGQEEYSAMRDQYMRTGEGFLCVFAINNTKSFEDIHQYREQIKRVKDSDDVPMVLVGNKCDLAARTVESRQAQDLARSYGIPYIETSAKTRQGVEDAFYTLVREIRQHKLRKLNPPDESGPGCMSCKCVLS
# [3] = KD ratio, GDP-bound NRAS wild-type vs GDP-bound KRAS wild-type
# [4] = KD ratio, GDP-bound HRAS wild-type vs GDP-bound KRAS wild-type
# [5] = GDP-bound NRAS wild-type vs GDP-bound KRAS wild-type
# [6] = GDP-bound HRAS wild-type vs GDP-bound KRAS wild-type
SMILES,NRAS/KRAS (ratio of KD value with respect to GDP-bound NRAS wild-type protein to KD value with respect to KRAS) [1],HRAS/KRAS (ratio of KD value with respect to GDP-bound HRAS wild-type protein to KD value with respect to KRAS) [2],other results
CCO[C@@H]1C[C@H]2C(=O)NC3(CCC3)C(=O)N(C)[C@@H](C3CCCC3)C(=O)N(C)[C@H](C(=O)N3CCOCC3)CC(=O)N(C)[C@@H](CC)C(=O)N[C@@H]([C@@H](C)CC)C(=O)N(C)CC(=O)N(C)[C@H]3CCCCCN(C3=O)[C@@H](Cc3ccc(C(F)(F)F)cc3)C(=O)N(C)CC(=O)N[C@@H](CCc3cc(F)c(C(F)(F)F)c(F)c3)C(=O)N2C1 [PP0678],B (a compound having 3 or more and less than 10 is denoted as B),B (a compound having 3 or more and less than 10 is denoted as B),–
CC[C@H](C)[C@@H]1NC(=O)[C@H](CC(C)C)N(C)C(=O)C[C@@H](C(=O)N(C)C)N(C)C(=O)[C@H](C2CCCC2)N(C)C(=O)C2(CCCC2)NC(=O)[C@@H]2CCCN2C(=O)[C@H](CCc2ccc(C(F)(F)F)c(Cl)c2)NC(=O)CN(C)C(=O)[C@H](Cc2ccc(C)cc2)N2CC=CCOC[C@H](C2=O)N(C)C(=O)CN(C)C1=O [PP0629],B (a compound having 3 or more and less than 10 is denoted as B),C (A compound having a KD ratio of 0.1 or more and less than 3 is denoted as C),–
CCO[C@@H]1C[C@H]2C(=O)NC3(CCC3)C(=O)N(C)[C@@H](C3CCCC3)C(=O)N(C)[C@H](C(=O)N3CCOCC3)CC(=O)N(C)[C@@H](CC)C(=O)N[C@@H]([C@@H](C)CC)C(=O)N3CC[C@H]3C(=O)N(C)[C@H]3CC(C)=CCN(C3=O)[C@@H](Cc3ccc(C(F)(F)F)cc3)C(=O)N(C)CC(=O)N[C@@H](CCc3cc(F)c(C(F)(F)F)c(F)c3)C(=O)N2C1 [PP1042],–,–,"NRAS/KRAS (ratio of KD value with respect to NRAS to KD value with respect to KRAS) [1, 3]: C (A compound having a KD ratio of 0.1 or more and less than 3 is denoted as C); HRAS/KRAS (ratio of KD value with respect to HRAS to KD value with respect to KRAS) [2, 4]: C (A compound having a KD ratio of 0.1 or more and less than 3 is denoted as C)"
CC[C@H](C)[C@@H]1NC(=O)[C@H](C)N(C)C(=O)C[C@@H](C(=O)N2CCOCC2)N(C)C(=O)[C@H](C2CCCC2)N(C)C(=O)C2(CCCC2)NC(=O)[C@@H]2CCCN2C(=O)[C@H](CCc2cc(F)c(C(F)(F)F)c(F)c2)NC(=O)CN(C)C(=O)[C@H](Cc2ccc(C(F)(F)F)cc2)N2CCCC[C@@H](C2=O)N(C)C(=O)CN(C)C1=O [PP0549],C (A compound having a KD ratio of 0.1 or more and less than 3 is denoted as C),B (a compound having 3 or more and less than 10 is denoted as B),–
CCO[C@@H]1C[C@H]2C(=O)NC3(CCCC3)C(=O)N(C)[C@@H](C3CCCC3)C(=O)N(C)[C@H](C(=O)N(C)C)CC(=O)N(C)[C@@H](CC(C)C)C(=O)N[C@@H]([C@@H](C)CC)C(=O)N(C)CC(=O)N(C)[C@H]3C/C=C\CCN(C3=O)[C@@H](Cc3ccc(C(F)(F)F)cc3)C(=O)N(C)CC(=O)N[C@@H](CCc3cc(F)c(Cl)c(F)c3)C(=O)N2C1 [PP2269],–,–,"NRAS/KRAS (ratio of KD value with respect to NRAS to KD value with respect to KRAS) [1, 5]: A (a compound having 10 or more and less than 20 is denoted as A); HRAS/KRAS (ratio of KD value with respect to HRAS to KD value with respect to KRAS) [2, 6]: A (a compound having 10 or more and less than 20 is denoted as A)"
C#CCN1CC(=O)N(C)[C@H]2C/C=C\CCN(C2=O)[C@@H](Cc2ccc(C)cc2)C(=O)N(C)CC(=O)N[C@@H](CCc2cc(F)c(C(F)(F)F)c(F)c2)C(=O)N2C[C@H](OCC)C[C@H]2C(=O)NC2(CC(C)(C)C2)C(=O)N(C)[C@@H](C2CCCC2)C(=O)N(C)[C@H](C(=O)N(C)C)CC(=O)N(C)[C@@H](CCC)C(=O)N[C@@H](CC(C)C)C1=O [PP2512],–,–,"NRAS/KRAS (ratio of KD value with respect to NRAS to KD value with respect to KRAS) [1, 5]: A (a compound having 10 or more and less than 20 is denoted as A); HRAS/KRAS (ratio of KD value with respect to HRAS to KD value with respect to KRAS) [2, 6]: A (a compound having 10 or more and less than 20 is denoted as A)"
CCO[C@@H]1C[C@H]2C(=O)NC3(CCC3)C(=O)N(C)[C@@H](C3CCCC3)C(=O)N(CCc3ccccc3)[C@H](C(=O)N3CCOCC3)CC(=O)N(C)[C@@H](CC(C)C)C(=O)N[C@@H]([C@@H](C)CC)C(=O)N(C)CC(=O)N(C)[C@H]3CCCCCN(C3=O)[C@@H](Cc3ccc(C(F)(F)F)cc3)C(=O)N(C)CC(=O)N[C@@H](CCc3cc(F)c(C(F)(F)F)c(F)c3)C(=O)N2C1 [PP0642],B (a compound having 3 or more and less than 10 is denoted as B),B (a compound having 3 or more and less than 10 is denoted as B),–
CCCN1C(=O)CN(C)C(=O)CN(C)C(=O)[C@H]([C@@H](C)CC)NC(=O)[C@H](CC(C)C)N(C)C(=O)C[C@@H](C(=O)N(C)C)N(CC)C(=O)[C@H](C2CCCC2)N(C)C(=O)C2(CCC2)NC(=O)[C@@H]2CCCN2C(=O)[C@H](CCc2ccc(C(F)(F)F)c(Cl)c2)NC(=O)CN(C)C(=O)[C@@H]1Cc1ccc(C(F)(F)F)cc1 [PP1956] ([NMeL]I[Sar][Sar][NPrPhe(4-CF3)][Sar][hPhe(3-Cl-4-CF3)]P[Ac4c][NMeGly(cPent)][NEtAsp]-NMe2; lactam N-11),–,–,"NRAS/KRAS (ratio of KD value for NRAS to KD value for KRAS) [1, 3]: B (a compound having 3 or more and less than 10 is denoted as B); HRAS/KRAS (ratio of KD value for HRAS to KD value for KRAS) [2, 4]: B (a compound having 3 or more and less than 10 is denoted as B)"
